Test results reported in ChEMBL document CHEMBL3044781, “Triterpenoid saponins with antifeedant activities from stem bark of Catunaregam spinosa (Rubiaceae) against Plutella xylostella (Plutellidae)” (2011).

tested on: Plutella xylostella; test: Antifeedant activity against second-instar larval stage of Plutella xylostella (diamondback moth) in cabbage leaf disks assessed as consumed leaf area treated for 10 secs before larval infestation measured within 48 hr by non-choice leaf disc method; format: functional

SMILES	AFC50
CC1(C)CC[C@]2(C(=O)O[C@@H]3O[C@H](CO)[C@@H](O)[C@H](O)[C@H]3O)CC[C@]3(C)C(=CC[C@@H]4[C@@]5(C)CC[C@H](O[C@@H]6O[C@H](CO)[C@@H](O)[C@H](O[C@@H]7O[C@H](CO)[C@@H](O)[C@H](O)[C@H]7O)[C@H]6O[C@@H]6O[C@H](CO)[C@@H](O)[C@H](O)[C@H]6O)C(C)(C)[C@@H]5CC[C@]43C)[C@@H]2C1 [ARALIA-SAPONIN V]	5467.82 µg/mL
CC1(C)CC[C@]2(C(=O)O[C@@H]3O[C@H](CO)[C@@H](O)[C@H](O)[C@H]3O)CC[C@]3(C)C(=CC[C@@H]4[C@@]5(C)CC[C@H](O[C@@H]6O[C@H](CO)[C@@H](O)[C@H](O[C@@H]7O[C@H](CO)[C@@H](O)[C@H](O)[C@H]7O)[C@H]6O[C@@H]6OC[C@@H](O)[C@H](O)[C@H]6O)C(C)(C)[C@@H]5CC[C@]43C)[C@@H]2C1 [ARALIASAPONIN IV]	335.54 µg/mL
CC1(C)CC[C@]2(C(=O)O)CC[C@]3(C)C(=CC[C@@H]4[C@@]5(C)CC[C@H](O[C@@H]6O[C@H](CO)[C@@H](O)[C@H](O[C@@H]7O[C@H](CO)[C@@H](O)[C@H](O)[C@H]7O)[C@H]6O[C@@H]6OC[C@@H](O)[C@H](O)[C@H]6O)C(C)(C)[C@@H]5CC[C@]43C)[C@@H]2[C@@H]1O [CATUNAROSIDE A]	243.23 µg/mL
C[C@@H]1O[C@@H](O[C@H]2[C@H](O[C@H]3CC[C@]4(C)[C@H]5CC=C6[C@@H]7CC(C)(C)CC[C@]7(C(=O)O)CC[C@@]6(C)[C@]5(C)CC[C@H]4C3(C)C)O[C@H](CO)[C@@H](O)[C@@H]2O[C@@H]2O[C@H](CO)[C@@H](O)[C@H](O)[C@H]2O)[C@H](O)[C@H](O)[C@H]1O [CATUNAROSIDE B]	369.63 µg/mL
C[C@@H]1O[C@@H](O[C@H]2[C@H](O[C@H]3CC[C@]4(C)[C@H]5CC=C6[C@@H]7[C@H](O)C(C)(C)CC[C@]7(C(=O)O[C@@H]7O[C@H](CO)[C@@H](O)[C@H](O)[C@H]7O)CC[C@@]6(C)[C@]5(C)CC[C@H]4C3(C)C)O[C@H](CO)[C@@H](O)[C@@H]2O[C@@H]2O[C@H](CO)[C@@H](O)[C@H](O)[C@H]2O)[C@H](O)[C@H](O)[C@H]1O [CATUNAROSIDE C]	946.13 µg/mL
CC1(C)CC[C@]2(C(=O)O[C@@H]3O[C@H](CO)[C@@H](O)[C@H](O)[C@H]3O)CC[C@]3(C)C(=CC[C@@H]4[C@@]5(C)CC[C@H](O[C@@H]6O[C@H](CO)[C@@H](O)[C@H](O[C@@H]7O[C@H](CO)[C@@H](O)[C@H](O)[C@H]7O)[C@H]6O[C@@H]6OC[C@@H](O)[C@H](O)[C@H]6O)C(C)(C)[C@@H]5CC[C@]43C)[C@@H]2[C@@H]1O [CATUNAROSIDE]	608.42 µg/mL
CC1(C)CC[C@]2(C(=O)O)CC[C@]3(C)C(=CC[C@@H]4[C@@]5(C)CC[C@H](O[C@@H]6O[C@H](CO)[C@@H](O)[C@H](O[C@@H]7O[C@H](CO)[C@@H](O)[C@H](O)[C@H]7O)[C@H]6O[C@@H]6OC[C@@H](O)[C@H](O)[C@H]6O)C(C)(C)[C@@H]5CC[C@]43C)[C@@H]2C1 [SWARTZIATRIOSIDE]	106.73 µg/mL
